Results as given in ChEMBL document CHEMBL1201862, “PubChem BioAssay data set” (2004).
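The compound was tested at five concentrations on cells cultured in 96-well plates, with a 48-hour exposure period. At the GI50, growth is halved.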 The source made the active and inactive calls. Cut-off read from the data, not from the text of the source: active = GI50 up to about 1.1 µM and inactive = higher.

Tests used:
Assay in all cases: NCI-60 cell line screen, 48 h
[1] = system: NCI-H23
[2] = system: NCI/ADR-RES
[3] = system: RPMI-8226
[4] = system: HCC 2998
[5] = system: SK-MEL-28
[6] = system: K562
[7] = system: CAKI-1
[8] = system: M14
[9] = system: UACC-257
[10] = system: SK-MEL-5
[11] = system: NCI-H522
[12] = system: NCI-H226
[13] = system: DU-145
[14] = system: OVCAR-5
[15] = system: U-251
[16] = system: A498
[17] = system: UACC-62
[18] = system: HCT-116
[19] = system: Hs-578T
[20] = system: OVCAR-3
[21] = system: MCF7
[22] = system: SW-620
[23] = system: HL-60
[24] = system: OVCAR-8
[25] = system: SK-MEL-2
[26] = system: EKVX
[27] = system: SF-539
[28] = system: SR
[29] = system: IGROV-1
[30] = system: SN12C
[31] = system: OVCAR-4
[32] = system: BT-549
[33] = system: T47D
[34] = system: NCI-H460
[35] = system: MDA-MB-231
[36] = system: Malme-3M
[37] = system: SF-268
[38] = system: TK-10
[39] = system: KM12
[40] = system: SK-OV-3
[41] = system: HOP-62
[42] = system: RXF 393
[43] = system: PC-3
[44] = system: COLO 205
[45] = system: LOX IMVI
[46] = system: MOLT-4
[47] = system: 786-0
[48] = system: SF-295
[49] = system: HT-29
[50] = system: SNB-19
[51] = system: MDA-MB-435
[52] = system: CCRF-CEM
[53] = system: ACHN
[54] = system: HCT-15
[55] = system: A549
[56] = system: UO-31
[57] = system: SNB-75
[58] = system: HOP-92
[59] = system: MDA-N

CCCCCCC(=O)OC[n+]1ccc(-c2c(COC(=O)NC(C)C)c(COC(=O)NC(C)C)c3n2CCC3)cc1
GI50 [1]: 48.9 µM (inactive) | GI50 [2]: > 100 µM (inactive) | GI50 [3]: 38.5 µM (inactive) | GI50 [4]: > 100 µM (inactive) | GI50 [5]: > 100 µM (inactive) | GI50 [6]: > 100 µM (inactive) | GI50 [7]: 30.8 µM (inactive) | GI50 [8]: > 87.9 µM (inactive) | GI50 [9]: > 100 µM (inactive) | GI50 [10]: > 100 µM (inactive) | GI50 [11]: 57 µM (inactive) | GI50 [12]: > 100 µM (inactive) | GI50 [13]: > 82.4 µM (inactive) | GI50 [14]: > 100 µM (inactive) | GI50 [15]: > 80.4 µM (inactive) | GI50 [16]: 46.9 µM (inactive) | GI50 [17]: 37.1 µM (inactive) | GI50 [18]: > 89.9 µM (inactive) | GI50 [19]: > 100 µM (inactive) | GI50 [20]: > 100 µM (inactive) | GI50 [21]: 45.8 µM (inactive) | GI50 [22]: 74.5 µM (inactive) | GI50 [23]: 23.3 µM (inactive) | GI50 [24]: > 100 µM (inactive) | GI50 [25]: > 100 µM (inactive) | GI50 [26]: > 100 µM (inactive) | GI50 [27]: 45.1 µM (inactive) | GI50 [28]: 10 µM (inactive) | GI50 [29]: > 100 µM (inactive) | GI50 [30]: 49.5 µM (inactive) | GI50 [31]: > 100 µM (inactive) | GI50 [32]: > 91 µM (inactive) | GI50 [33]: > 100 µM (inactive) | GI50 [34]: 35.6 µM (inactive) | GI50 [35]: > 71.3 µM (inactive) | GI50 [36]: > 64.7 µM (inactive) | GI50 [37]: 48.6 µM (inactive) | GI50 [38]: > 100 µM (inactive) | GI50 [39]: > 100 µM (inactive) | GI50 [40]: > 100 µM (inactive) | GI50 [41]: > 64.3 µM (inactive) | GI50 [42]: > 65.8 µM (inactive) | GI50 [43]: > 90.8 µM (inactive) | GI50 [44]: > 80.9 µM (inactive) | GI50 [45]: 42.9 µM (inactive) | GI50 [46]: 25.2 µM (inactive) | GI50 [47]: 39.6 µM (inactive) | GI50 [48]: > 75.2 µM (inactive) | GI50 [49]: > 100 µM (inactive) | GI50 [50]: > 100 µM (inactive) | GI50 [51]: > 100 µM (inactive) | GI50 [52]: 24.6 µM (inactive) | GI50 [53]: 41 µM (inactive) | GI50 [54]: > 100 µM | GI50 [55]: > 87.7 µM (inactive) | GI50 [56]: > 100 µM (inactive) | GI50 [57]: > 68.1 µM (inactive) | GI50 [58]: 63.5 µM (inactive)

C/C(=N\Nc1nc2ccccc2[nH]1)c1cc2ccccc2cn1
GI50 [1]: 0.0345 µM (active) | GI50 [2]: 0.0284 µM (active) | GI50 [3]: < 0.01 µM (active) | GI50 [4]: 1.45 µM (inactive) | GI50 [5]: 0.0853 µM (active) | GI50 [6]: 0.0159 µM (active) | GI50 [7]: < 0.01 µM (active) | GI50 [8]: < 0.01 µM (active) | GI50 [9]: 0.0243 µM (active) | GI50 [10]: 0.0494 µM (active) | GI50 [11]: < 0.0165 µM (active) | GI50 [12]: 0.0382 µM (active) | GI50 [13]: 0.442 µM (active) | GI50 [14]: 0.288 µM (active) | GI50 [15]: 0.0318 µM (active) | GI50 [16]: 0.0993 µM (active) | GI50 [17]: 0.0531 µM (active) | GI50 [18]: 0.0158 µM (active) | GI50 [19]: 0.0612 µM (active) | GI50 [21]: < 0.01 µM (active) | GI50 [22]: < 0.012 µM (active) | GI50 [23]: < 0.01 µM (active) | GI50 [24]: < 0.018 µM (active) | GI50 [25]: 0.508 µM (active) | GI50 [26]: < 0.0183 µM (active) | GI50 [27]: 0.1 µM (active) | GI50 [28]: 0.0281 µM (active) | GI50 [29]: < 0.0175 µM (active) | GI50 [30]: < 0.01 µM (active) | GI50 [31]: 0.0443 µM (active) | GI50 [32]: 0.592 µM (active) | GI50 [33]: < 0.0352 µM (active) | GI50 [34]: 0.0661 µM (active) | GI50 [35]: 0.0261 µM (active) | GI50 [36]: < 0.01 µM (active) | GI50 [37]: 0.0399 µM (active) | GI50 [38]: 0.122 µM (active) | GI50 [39]: 0.0741 µM (active) | GI50 [40]: 0.0465 µM (active) | GI50 [41]: 1.11 µM (active) | GI50 [42]: 0.208 µM (active) | GI50 [44]: < 0.01 µM (active) | GI50 [45]: 0.051 µM (active) | GI50 [46]: 0.0117 µM (active) | GI50 [47]: 0.048 µM (active) | GI50 [48]: 0.166 µM (active) | GI50 [59]: 0.171 µM (active) | GI50 [49]: 0.0104 µM (active) | GI50 [50]: 0.277 µM (active) | GI50 [51]: 0.182 µM (active) | GI50 [52]: < 0.01 µM (active) | GI50 [53]: < 0.0139 µM (active) | GI50 [54]: < 0.0106 µM | GI50 [55]: 0.0775 µM (active) | GI50 [56]: 0.0115 µM (active) | GI50 [57]: 0.317 µM (active) | GI50 [58]: 0.0755 µM (active)

CCOC(=O)c1c(N2CCOCC2)[nH]c(=O)c(C(c2c(Cl)cccc2Cl)c2c(O)c(C(=O)OCC)c(N3CCOCC3)[nH]c2=O)c1O
GI50 [1]: 7.19 µM (inactive) | GI50 [2]: 18 µM (inactive) | GI50 [3]: 2.18 µM (inactive) | GI50 [4]: 19.4 µM (inactive) | GI50 [5]: 1.93 µM (inactive) | GI50 [6]: 2.3 µM (inactive) | GI50 [7]: 2.31 µM (inactive) | GI50 [8]: 2.4 µM (inactive) | GI50 [9]: 5.58 µM (inactive) | GI50 [10]: 4.55 µM (inactive) | GI50 [11]: 1.83 µM (inactive) | GI50 [12]: 13.8 µM (inactive) | GI50 [13]: 12.2 µM (inactive) | GI50 [14]: 14.4 µM (inactive) | GI50 [15]: 4.8 µM (inactive) | GI50 [16]: 8.71 µM (inactive) | GI50 [17]: 6.9 µM (inactive) | GI50 [18]: 4.39 µM (inactive) | GI50 [19]: 4.86 µM (inactive) | GI50 [20]: 3.48 µM (inactive) | GI50 [21]: 2.47 µM (inactive) | GI50 [22]: 1.7 µM (inactive) | GI50 [23]: 1.96 µM (inactive) | GI50 [24]: 8.17 µM (inactive) | GI50 [25]: 4.74 µM (inactive) | GI50 [26]: 18.9 µM (inactive) | GI50 [27]: 5.11 µM (inactive) | GI50 [28]: 3.97 µM (inactive) | GI50 [29]: 4.09 µM (inactive) | GI50 [30]: 4.92 µM (inactive) | GI50 [31]: 9.84 µM (inactive) | GI50 [32]: 7.76 µM (inactive) | GI50 [33]: 4.01 µM (inactive) | GI50 [34]: 21.4 µM (inactive) | GI50 [35]: 12.3 µM (inactive) | GI50 [36]: 2.49 µM (inactive) | GI50 [37]: 8.22 µM (inactive) | GI50 [38]: 4.66 µM (inactive) | GI50 [39]: 16.9 µM (inactive) | GI50 [40]: 11.2 µM (inactive) | GI50 [41]: 16.1 µM (inactive) | GI50 [42]: 2.19 µM (inactive) | GI50 [43]: 15.5 µM (inactive) | GI50 [44]: 4.34 µM (inactive) | GI50 [45]: 2.91 µM (inactive) | GI50 [46]: 2.07 µM (inactive) | GI50 [47]: 2.67 µM (inactive) | GI50 [48]: 16 µM (inactive) | GI50 [49]: 3.56 µM (inactive) | GI50 [50]: 7.45 µM (inactive) | GI50 [51]: 3.48 µM (inactive) | GI50 [52]: 1.64 µM (inactive) | GI50 [53]: 4.54 µM (inactive) | GI50 [54]: 4.63 µM | GI50 [55]: 18.2 µM (inactive) | GI50 [56]: 2.47 µM (inactive) | GI50 [57]: 6.7 µM (inactive) | GI50 [58]: 2.09 µM (inactive)
